Here are results for 2 molecules from patent publication US20040063685A1, “Combination Drugs” (priority 2000, published 2004).

One series relates to E. coli O111 strain. Nature of the series: Survival of mice intraperitoneally inoculated with E. coli O111, combined use with ceftazidime. The series is classed as in vivo. Conditions: FIG. 1. How it is done: The E. coli O111 strain was suspended in 5% mucin, and 0.5 ml thereof was intraperitoneally inoculated to mice (BALB/c, male, 5-week-old) (9×10^4 CFU per mouse). At 1 hr after inoculation, an antibacterial agent, ceftazidime (CAZ, 12.5 μg/kg) was administered subcutaneously, and compound 29 (test compound 30 mg/kg) of Reference Example B65 suspended in a 0.5% methyl cellulose (MC) solution was simultaneously administered orally.

The conditions of series [1]: crystals.

Each structure is given as a SMILES string.

For the molecule `CCOC(=O)C1=CCCCC1S(=O)(=O)Nc1ccc(F)cc1Cl` (stereo not drawn) [compound 29, ethyl 6-[N-(2-chloro-4-fluorophenyl)sulfamoyl]-1-cyclohexene-1-carboxylate], the survival rate result in the series on E. coli O111 strain (combined use: compound 29 30 mg/kg orally (0.5% methyl cellulose) and ceftazidime (CAZ) 12.5 μg/kg subcutaneously at 1 hr after inoculation, BALB/c male mice, 9×10^4 CFU per mouse, monitored for a week) is “remarkably increases”. In addition, the “effectiveness of test compound alone (survival)” value with E. coli O111 strain (compound 29 30 mg/kg orally without ceftazidime, BALB/c mice infected with E. coli O111) is on record as “low effectiveness”.

For the molecule `CCOC(=O)C1=CCCCC1S(=O)(=O)Nc1ccc(F)cc1Cl` (stereo not drawn) [crystals of compound B, d-ethyl 6-[N-(2-chloro-4-fluorophenyl)sulfamoyl]-1-cyclohexene-1-carboxylate], in series [1], the hygroscopicity result is reported as “low”.
